Counter-ions that a name gives are not always drawn.
Key:
[1] = target: T1, human uterine oxytocin receptors (Homo sapiens, UniProt P30559); test: in vitro binding test: displacement of a radioiodinated oxytocin analog in a membrane preparation; conditions: read-out: IC50 (concentration which inhibits 50% of the binding of the radioiodinated oxytocin analog to its receptors)
T1 construct: host or cells: membrane preparation
T1 sequence (P30559 1-389): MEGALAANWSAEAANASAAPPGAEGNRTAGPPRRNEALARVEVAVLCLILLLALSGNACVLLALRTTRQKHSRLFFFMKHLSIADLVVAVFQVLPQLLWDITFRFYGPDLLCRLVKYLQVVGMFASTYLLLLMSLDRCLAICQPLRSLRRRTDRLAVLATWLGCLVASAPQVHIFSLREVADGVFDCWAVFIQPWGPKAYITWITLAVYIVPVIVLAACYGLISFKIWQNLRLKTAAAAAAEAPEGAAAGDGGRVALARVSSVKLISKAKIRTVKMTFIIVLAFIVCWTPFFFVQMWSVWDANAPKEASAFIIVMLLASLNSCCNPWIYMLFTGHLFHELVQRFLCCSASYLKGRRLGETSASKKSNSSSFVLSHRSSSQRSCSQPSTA
Description: The compounds according to the invention have formed the subject of biochemical and pharmacological studies. The affinity of the compounds according to the invention for oxytocin receptors was determined in an in vitro binding test using the method described by J. Elands et al., Eur. J. Pharmacol. (1987), 147, pp. 197-207. This method consists in studying in vitro the displacement of a radioiodinated oxytocin analog at the oxytocin receptors in a membrane preparation of human uterine oxytocin receptors. The IC50 values (concentration which inhibits 50% of the binding of the radioiodinated oxytocin analog to its receptors) are low and vary from 10^−10 to 10^−6 M in the latter test.

[2] = target: T2, cells expressing human oxytocin receptors (Homo sapiens, UniProt P30559); test: measurement of intracellular calcium (agonist or antagonist nature); assay type: cell-based
T2 sequence (P30559 1-389): T1 sequence (P30559 1-389)
Description: The agonist or antagonist nature of the compounds is determined in vitro in a test for the measurement of intracellular calcium with respect to cells expressing human oxytocin receptors according to the general technique described in Am. J. Physiol., 268, and Heart Circ. Physiol. (1995), 37, H404-H410.

[3] = target: human vasopressin V1a receptors (Homo sapiens, UniProt P37288); test: affinity for vasopressin V1a receptors (method of Thibonnier et al.); assay type: binding; conditions: tested at a concentration of 1 μM; read-out: percentage of inhibition on V1a receptors
Chain of human vasopressin V1a receptors (P37288 whole entry): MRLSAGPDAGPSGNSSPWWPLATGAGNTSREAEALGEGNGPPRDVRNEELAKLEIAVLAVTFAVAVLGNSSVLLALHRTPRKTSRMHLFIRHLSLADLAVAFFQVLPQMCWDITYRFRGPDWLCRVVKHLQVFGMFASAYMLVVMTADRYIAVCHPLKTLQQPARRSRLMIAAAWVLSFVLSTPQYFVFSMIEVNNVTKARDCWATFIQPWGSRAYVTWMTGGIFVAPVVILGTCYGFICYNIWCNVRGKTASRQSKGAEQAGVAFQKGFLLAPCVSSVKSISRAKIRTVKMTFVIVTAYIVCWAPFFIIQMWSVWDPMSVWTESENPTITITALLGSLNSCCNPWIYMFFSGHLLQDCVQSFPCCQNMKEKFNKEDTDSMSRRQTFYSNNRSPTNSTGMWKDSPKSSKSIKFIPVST
Excerpt: (§1) The affinity of these compounds for human vasopressin V1a receptors (method described by M. Thibonnier et al. in J. Biol. Chem. (1994), 269, pp. 3304-3310), V1b receptors (method described by T. Sugimoto et al. in J. Biol. Chem. (1994), 269, pp. 27088-27092) and V2 receptors (method described by T. Birnbaumer et al. in Nature (Lond.) (1992), 357, pp. 333-335) has also been studied. The compounds studied have little or no affinity for the V1a, V1b and V2 receptors.

[4] = target: human vasopressin V2 receptors (Homo sapiens, UniProt P30518); test: affinity for vasopressin V2 receptors (method of Birnbaumer et al.); assay type: binding; conditions: tested at a concentration of 1 μM; read-out: percentage of inhibition on V2 receptors
Chain of human vasopressin V2 receptors (P30518 whole entry): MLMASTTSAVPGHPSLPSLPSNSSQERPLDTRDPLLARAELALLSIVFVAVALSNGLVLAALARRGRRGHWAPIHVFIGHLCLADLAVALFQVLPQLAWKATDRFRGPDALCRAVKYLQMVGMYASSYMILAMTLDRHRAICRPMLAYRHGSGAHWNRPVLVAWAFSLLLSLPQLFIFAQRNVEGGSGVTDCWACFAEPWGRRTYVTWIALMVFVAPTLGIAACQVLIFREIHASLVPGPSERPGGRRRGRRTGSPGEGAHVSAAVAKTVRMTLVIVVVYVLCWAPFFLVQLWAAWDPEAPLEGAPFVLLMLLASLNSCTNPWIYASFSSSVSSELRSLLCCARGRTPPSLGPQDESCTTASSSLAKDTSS
Excerpt: as §1

[5] = target: T3, human vasopressin V1b receptors (Homo sapiens, UniProt P47901); test: affinity for vasopressin V1b receptors (method of Sugimoto et al.); assay type: binding; conditions: tested at a concentration of 1 μM; read-out: percentage of inhibition on V1b receptors
T3 sequence (P47901 1-424): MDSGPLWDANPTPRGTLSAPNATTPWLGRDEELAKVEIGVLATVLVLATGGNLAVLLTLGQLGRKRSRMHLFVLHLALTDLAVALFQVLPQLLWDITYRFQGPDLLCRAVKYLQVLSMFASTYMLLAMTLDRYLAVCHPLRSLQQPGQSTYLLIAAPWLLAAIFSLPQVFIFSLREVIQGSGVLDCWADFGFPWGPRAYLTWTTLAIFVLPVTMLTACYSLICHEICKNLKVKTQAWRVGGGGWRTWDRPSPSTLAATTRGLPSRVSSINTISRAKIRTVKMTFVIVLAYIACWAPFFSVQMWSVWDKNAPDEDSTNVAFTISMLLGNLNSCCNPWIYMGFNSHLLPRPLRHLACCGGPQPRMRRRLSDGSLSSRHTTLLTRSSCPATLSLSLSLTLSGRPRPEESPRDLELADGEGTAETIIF
Excerpt: as §1

`CCN(Cc1ccc[n+]([O-])c1)C(=O)c1ccc(Cl)c(C2(C)C(=O)N(Cc3ccc(OC)cc3OC)c3ccc(Cl)cc32)c1` (centres unmarked) (as salt: hydrochloride) [example 7, 4-chloro-3-[5-chloro-1-(2,4-dimethoxybenzyl)-3-methyl-2-oxo-2,3-dihydro-1H-indol-3-yl]-N-ethyl-N-(1-oxypyrid-3-ylmethyl)benzamide hydrochloride] showed a melting point of 176 °C.

For `CCN(Cc1ccc[n+](CC(=O)O)c1)C(=O)c1ccc(Cl)c(C2(C)C(=O)N(Cc3ccc(OC)cc3OC)c3ccc(Cl)cc32)c1` (centres unmarked) [example 2, 1-Carboxymethyl-3-[({4-chloro-3-[5-chloro-1-(2,4-dimethoxybenzyl)-3-methyl-2-oxo-2,3-dihydro-1H-indol-3-yl]benzoyl}(ethyl)amino)methyl]pyridinium chloride], the IC50 [1] was 6.9 nM.

With `CCN(Cc1ccc[n+]([C@@H]2O[C@H](C(=O)O)[C@@H](O)[C@H](O)[C@H]2O)c1)C(=O)c1ccc(Cl)c(C2(C)C(=O)N(Cc3ccc(OC)cc3OC)c3ccc(Cl)cc32)c1` (stereo partly drawn) [example 3, 1-(β-D-Glucopyranuronosyl)-3-[({4-chloro-3-[5-chloro-1-(2,4-dimethoxybenzyl)-3-methyl-2-oxo-2,3-dihydro-1H-indol-3-yl]benzoyl}(ethyl)amino)methyl]pyridinium chloride] the IC50 [2] was 3 nM and the “agonist or antagonist nature” value [2] was “antagonist”.

`CCN(Cc1ccc[n+]([O-])c1)C(=O)c1ccc(Cl)c(C2(C)C(=O)N(Cc3ccc(OC)cc3OC)c3ccc(Cl)cc32)c1` (centres unmarked) [example 7, 4-chloro-3-[5-chloro-1-(2,4-dimethoxybenzyl)-3-methyl-2-oxo-2,3-dihydro-1H-indol-3-yl]-N-ethyl-N-(1-oxypyrid-3-ylmethyl)benzamide hydrochloride] gave an inhibition at 1 µM [3] of under 50%, an inhibition at 1 µM [4] of under 50% and an inhibition at 1 µM [5] of under 50%. It also gave an IC50 [1] of under 50 nM.

— patent US7488743B2, “Indolin-2-one pyridine derivatives, preparation and therapeutic use thereof” (Sanofi-Aventis, priority 2004, dated 2009)
